Data taken from patent US4068070A, “α-Cyanoamine compounds and a process for producing the same” (Fuji Chemical Industry Co., Ltd., priority 1974, dated 1978).

How the values were obtained:
Format in all cases: in vivo, mongrel adult dogs
[1] = tested on: arterial mean blood pressure; test: Effects on arterial mean blood pressure
Outline: (§1)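 Readouts: aortic pressure by transducer through carotid cannula, aortic root flow electromagnetically, coronary sinus flow and oxygen tension through Morawitz cannulation. Subjects were anesthetized (pentobarbital) open-chest adult mongrel dogs of either sex given intravenous test compound or active placebo.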

[2] = tested on: aortic blood flow; test: Effects on aortic blood flow
Outline: as §1

[3] = tested on: coronary sinus out flow; test: Effects on coronary sinus out flow
Outline: as §1

[4] = tested on: coronary sinus oxygen tension; test: Effects on coronary sinus oxygen tension
Outline: as §1

[5] = tested on: heart rate; test: Effects on heart rate
Outline: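 Adult mongrel dogs of both sexes were anesthetized with pentobarbital and thoracotomized. Test agents, suspended or dissolved in 0.2% CMC, pH 6 HCl solution or saline, were injected intravenously into the brachial vein. Hemodynamic and coronary sinus parameters were then recorded.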

SMILES: COc1ccc(C(C#N)N2CCNCC2)cc1OC (stereo not shown) [Compound F]
- Changes (%) of basal values, arterial mean blood pressure ([1]; 2.0 mg/kg i.v., 1 min): -1.3%
- Changes (%) of basal values, arterial mean blood pressure ([1]; 2.0 mg/kg i.v., 5 min): -4.9%
- Changes (%) of basal values, arterial mean blood pressure ([1]; 2.0 mg/kg i.v., 10 min): -3.3%
- Changes (%) of basal values, arterial mean blood pressure ([1]; 2.0 mg/kg i.v., 20 min): -2.1%
- Changes (%) of basal values, arterial mean blood pressure ([1]; 2.0 mg/kg i.v., 30 min): -0.4%
- Changes (%) of basal values, arterial mean blood pressure ([1]; 2.0 mg/kg i.v., 40 min): 0%
- Changes (%) of basal values, arterial mean blood pressure ([1]; 2.0 mg/kg i.v., imm.): +2.3%
- Changes (%) of basal values, arterial mean blood pressure ([1]; 6.0 mg/kg i.v., 1 min): +15.8%
- Changes (%) of basal values, arterial mean blood pressure ([1]; 6.0 mg/kg i.v., 5 min): -9.3%
- Changes (%) of basal values, arterial mean blood pressure ([1]; 6.0 mg/kg i.v., 10 min): -12.5%
- Changes (%) of basal values, arterial mean blood pressure ([1]; 6.0 mg/kg i.v., 20 min): -10.0%
- Changes (%) of basal values, arterial mean blood pressure ([1]; 6.0 mg/kg i.v., 30 min): -5.2%
- Changes (%) of basal values, arterial mean blood pressure ([1]; 6.0 mg/kg i.v., 40 min): -2.8%
- Changes (%) of basal values, arterial mean blood pressure ([1]; 6.0 mg/kg i.v., imm.): +16.0%
- Effects on arterial mean blood pressure (in words) ([1]; i.v., anesthetized dogs): an increase in blood pressure was observed immediately after administration, but thereafter, a long duration hypotensive effect was observed
- Changes (%) of basal values, aortic blood flow ([2]; 2.0 mg/kg i.v., 1 min): +0.7%
- Changes (%) of basal values, aortic blood flow ([2]; 2.0 mg/kg i.v., 5 min): -4.1%
- Changes (%) of basal values, aortic blood flow ([2]; 2.0 mg/kg i.v., 10 min): -1.2%
- Changes (%) of basal values, aortic blood flow ([2]; 2.0 mg/kg i.v., 20 min): 0%
- Changes (%) of basal values, aortic blood flow ([2]; 2.0 mg/kg i.v., 30 min): 0%
- Changes (%) of basal values, aortic blood flow ([2]; 2.0 mg/kg i.v., 40 min): 0%
- Changes (%) of basal values, aortic blood flow ([2]; 2.0 mg/kg i.v., imm.): +9.2%
- Changes (%) of basal values, aortic blood flow ([2]; 6.0 mg/kg i.v., 1 min): +12.1%
- Changes (%) of basal values, aortic blood flow ([2]; 6.0 mg/kg i.v., 5 min): -2.2%
- Changes (%) of basal values, aortic blood flow ([2]; 6.0 mg/kg i.v., 10 min): -2.0%
- Changes (%) of basal values, aortic blood flow ([2]; 6.0 mg/kg i.v., 20 min): -1.2%
- Changes (%) of basal values, aortic blood flow ([2]; 6.0 mg/kg i.v., 30 min): 0%
- Changes (%) of basal values, aortic blood flow ([2]; 6.0 mg/kg i.v., 40 min): 0%
- Changes (%) of basal values, aortic blood flow ([2]; 6.0 mg/kg i.v., imm.): +20.5%
- Effects on aortic blood flow (in words) ([2]; i.v., anesthetized dogs): an increase in blood flow immediately after administration, followed by a decrease in blood flow
- Changes(%) of basal values, coronary sinus out flow ([3]; 2.0 mg/kg i.v., 1 min): +2.9%
- Changes(%) of basal values, coronary sinus out flow ([3]; 2.0 mg/kg i.v., 5 min): -1.7%
- Changes(%) of basal values, coronary sinus out flow ([3]; 2.0 mg/kg i.v., 10 min): -4.4%
- Changes(%) of basal values, coronary sinus out flow ([3]; 2.0 mg/kg i.v., 20 min): -3.1%
- Changes(%) of basal values, coronary sinus out flow ([3]; 2.0 mg/kg i.v., 30 min): -1.0%
- Changes(%) of basal values, coronary sinus out flow ([3]; 2.0 mg/kg i.v., 40 min): -0.2%
- Changes(%) of basal values, coronary sinus out flow ([3]; 2.0 mg/kg i.v., imm.): +12.4%
- Changes(%) of basal values, coronary sinus out flow ([3]; 6.0 mg/kg i.v., 1 min): +68.6%
- Changes(%) of basal values, coronary sinus out flow ([3]; 6.0 mg/kg i.v., 5 min): +7.4%
- Changes(%) of basal values, coronary sinus out flow ([3]; 6.0 mg/kg i.v., 10 min): +0.1%
- Changes(%) of basal values, coronary sinus out flow ([3]; 6.0 mg/kg i.v., 20 min): -8.2%
- Changes(%) of basal values, coronary sinus out flow ([3]; 6.0 mg/kg i.v., 30 min): -5.3%
- Changes(%) of basal values, coronary sinus out flow ([3]; 6.0 mg/kg i.v., 40 min): -2.1%
- Changes(%) of basal values, coronary sinus out flow ([3]; 6.0 mg/kg i.v., imm.): +74.5%
- Effects on coronary sinus out flow (in words) ([3]; i.v., anesthetized dogs): increased markedly coronary sinus out flow immediately after administration, effect of which was, however, relatively transitory
- Changes(%) of basal values, coronary sinus oxygen tension ([4]; 2.0 mg/kg i.v., 1 min): +1.4%
- Changes(%) of basal values, coronary sinus oxygen tension ([4]; 2.0 mg/kg i.v., 5 min): -1.1%
- Changes(%) of basal values, coronary sinus oxygen tension ([4]; 2.0 mg/kg i.v., 10 min): -1.4%
- Changes(%) of basal values, coronary sinus oxygen tension ([4]; 2.0 mg/kg i.v., 20 min): -0.8%
- Changes(%) of basal values, coronary sinus oxygen tension ([4]; 2.0 mg/kg i.v., 30 min): 0%
- Changes(%) of basal values, coronary sinus oxygen tension ([4]; 2.0 mg/kg i.v., 40 min): 0%
- Changes(%) of basal values, coronary sinus oxygen tension ([4]; 2.0 mg/kg i.v., imm.): +10.9%
- Changes(%) of basal values, coronary sinus oxygen tension ([4]; 6.0 mg/kg i.v., 1 min): +20.3%
- Changes(%) of basal values, coronary sinus oxygen tension ([4]; 6.0 mg/kg i.v., 5 min): +3.9%
- Changes(%) of basal values, coronary sinus oxygen tension ([4]; 6.0 mg/kg i.v., 10 min): +1.0%
- Changes(%) of basal values, coronary sinus oxygen tension ([4]; 6.0 mg/kg i.v., 20 min): -4.1%
- Changes(%) of basal values, coronary sinus oxygen tension ([4]; 6.0 mg/kg i.v., 30 min): -1.2%
- Changes(%) of basal values, coronary sinus oxygen tension ([4]; 6.0 mg/kg i.v., 40 min): -0.3%
- Changes(%) of basal values, coronary sinus oxygen tension ([4]; 6.0 mg/kg i.v., imm.): +20.1%
- Effects on coronary sinus oxygen tension (in words) ([4]; i.v., anesthetized dogs): slightly transitory as compared with those of compounds as mentioned above
- increased oxygen tension ([4]; i.v., anesthetized dogs): about 20%
- Changes(%) of basal values, heart rate ([5]; 2.0 mg/kg i.v., 1 min): +2.6%
- Changes(%) of basal values, heart rate ([5]; 2.0 mg/kg i.v., 5 min): -1.5%
- Changes(%) of basal values, heart rate ([5]; 2.0 mg/kg i.v., 10 min): -2.3%
- Changes(%) of basal values, heart rate ([5]; 2.0 mg/kg i.v., 20 min): -1.8%
- Changes(%) of basal values, heart rate ([5]; 2.0 mg/kg i.v., 30 min): -0.7%
- Changes(%) of basal values, heart rate ([5]; 2.0 mg/kg i.v., 40 min): 0%
- Changes(%) of basal values, heart rate ([5]; 2.0 mg/kg i.v., imm.): +1.4%
- Changes(%) of basal values, heart rate ([5]; 6.0 mg/kg i.v., 1 min): +3.7%
- Changes(%) of basal values, heart rate ([5]; 6.0 mg/kg i.v., 5 min): -2.2%
- Changes(%) of basal values, heart rate ([5]; 6.0 mg/kg i.v., 10 min): -3.6%
- Changes(%) of basal values, heart rate ([5]; 6.0 mg/kg i.v., 20 min): -3.3%
- Changes(%) of basal values, heart rate ([5]; 6.0 mg/kg i.v., 30 min): -2.0%
- Changes(%) of basal values, heart rate ([5]; 6.0 mg/kg i.v., 40 min): -1.4%
- Changes(%) of basal values, heart rate ([5]; 6.0 mg/kg i.v., imm.): -7.2%
- Effects on heart rate (in words) ([5]; i.v., anesthetized dogs): slight negative chronotropic effects accompanied by an increase in heart rate immediately after administration
